Laboratory results: patent US20180133223A1, “COMBINATION THERAPY WITH A PHOSPHOINOSITIDE 3-KINASE INHIBITOR WITH A ZINC BINDING MOIETY” (Curis, Inc., priority 2016, published 2018)
Marks after values point to notes of the source that are not given here. Values belong to the molecule of their own block, whether it stands above or below them.

Assays:
[1] = Oral bioavailability in animal models; format: in vivo
[2] = test system: KARPAS422; test: Tumor growth inhibition, KARPAS422; format: in vivo; settings: KARPAS422, 100 mg/kg
[3] = test system: DOHH2; test: DOHH2 diffuse large B cell lymphoma xenograft model; format: in vivo, mice; settings: DOHH2, 100 mg/kg
Experimental: Six- to 9-week-old female immunodeficient Fox Chase SCID Beige mice obtained from Charles River Laboratories (Wilmington, Mass.) were subcutaneously injected with 5×10^6 cells in a medium suspension of 100 to 200 μL into the right hind flank region. The treatment was started when the average tumor size reached approximately 100 to 200 mm^3. […] Venetoclax was formulated in 60% phosal 50PG, 30% PEG 400, 10% ethanol (Vehicle 2; Sigma Aldrich, St. Louis, Mo.).
Varying doses of Compound 1 alone, venetoclax alone, the two agents in combination or vehicle were administered orally as per Institutional Animal Care and Use Committee guidelines. […] Venetoclax and Vehicle 2 were dosed daily for 21 days.
Tumor size was measured twice weekly and the volume was expressed in mm^3 using the formula, V=0.5a×b^2, where a and b were the long and short diameters of the tumor, respectively. […]
(§1) Differences between values obtained in tumors treated with different experimental conditions were determined using the Student's t-test on GraphPad Prism 5.0 (Graphpad Software). p<0.05 was considered as statistically significant.

[4] = test system: U2932; test: Tumor growth inhibition, U2932; format: in vivo; settings: U2932, 100 mg/kg
[5] = test system: WSUDLCL2; test: Tumor growth inhibition, WSUDLCL2; format: in vivo; settings: WSUDLCL2, 100 mg/kg
[6] = Tumor tissue uptake in xenograft tumor bearing mice; format: in vivo; settings: oral or intravenous dosing
[7] = test system: xenograft tumor; test: Mouse xenograft tumor models; format: in vivo; settings: oral or intravenous administration
[8] = Genotoxicity testing, Ames test
[9] = test system: HDACs (HeLa cell nuclear extracts); test: HDAC activity assay (Biomol Color de Lys), HeLa cell nuclear extracts; format: biochemical; settings: HeLa cell nuclear extracts as source of HDACs
Experimental: HDAC inhibitory activity was assessed using the Biomol Color de Lys system (AK-500, Biomol, Plymouth Meeting, Pa.). Briefly, HeLa cell nuclear extracts were used as a source of HDACs. Different concentrations of test compounds were serially diluted in dimethylsulfoxide (DMSO) and added to HeLa cell nuclear extracts in the presence of a colorimetric artificial substrate. Final assay condition contained 50 mM Tris/Cl, pH 8.0, 137 mM NaCl, 2.7 mM KCl and 1 mM MgCl2. Reactions were carried in room temperature (25° C.) for 1 hour before addition of developer for termination. Relative enzyme activity was measured in the WALLAC Victor II 1420 microplate reader as fluorescence intensity (excitation: 350-380 nm; emission: 440-460 nm). Data were analyzed using GraphPad Prism (v4.0a) with a sigmoidal dose response curve fitting for IC50 calculation.

[10] = test system: OCILY3; test: Tumor growth inhibition, OCILY3; format: in vivo; settings: OCILY3, 100 mg/kg
[11] = test system: SUDHL4; test: SU-DHL-4 diffuse large B cell lymphoma xenograft model; format: in vivo, mice; settings: SUDHL4, 100 mg/kg
Experimental: 7- to 9-week-old female immunodeficient Fox Chase SCID Beige mice (15-24 g) obtained from Charles River Laboratories (Wilmington, Mass.) were subcutaneously injected with 5×10^6 SU-DHL-4 cells in a medium suspension of 100 μL cold PBS into the right hind flank region. The treatment was started 29 days following implantation; the average tumor size reached was 126 mm^3. […] Venetoclax (ABT-199) was dissolved in Vehicle 2 (60% phosal 50 PG, 30% PEG 400 and 10% ethanol) to a concentration of 20 mg/mL.
In Groups H to K, Compound 1 and venetoclax were dosed within one minute of each other.
Tumor size was measured twice weekly and the volume was expressed in mm^3 using the formula, V=0.5a×b^2, where a and b were the long and short diameters of the tumor, respectively. The tumor size was then used for the calculation of tumor growth inhibition (TGI)=(1−(T1−T0)/(C1−C0))×100, where C1=mean tumor volume of control mice at time t; T1=mean tumor volume of treated mice at time t; C0=mean tumor volume of control mice at time 0; and T0=mean tumor volume of treated mice at time 0.
as §1

[12] = test system: OCILY3 cells; test: Cancer cell proliferation / drug combination (CellTiter-Glo); format: cell-based
Experimental: (§2) DLBCL cancer cell lines were purchased from the American Type Culture Collection (Manassas, Va.) and German Collection of Microorganisms and Cell Cultures (Braunschweig, Germany). Cells were maintained according to manufacturing recommendation and incubated at 37° C. in a humidified atmosphere of 5% CO2. Growth media was changed every 2 to 3 days and cells were maintained at a density of 2×10^6 to 4×10^6 cells/mL. Exponentially growing cell cultures were used for all experiments described below.
(§3) Cells were plated at densities of 2×10^4 in 96-well flat-bottomed plates with the recommended culture medium for proliferation assays. Cells were then incubated with indicated compounds at various concentrations for indicated amount of time in culture medium supplemented with 10% (v/v) FBS. Cell viability was assessed using the […]-GLO® Luminescent Cell Viability Assay (Promega, Madison, Wis.). GraphPad Prism 5.0 (Graphpad Software, La Jolla, Calif.) was used for curve fitting and IC50 calculation. Two independent experiments with duplicates were performed for each experiment.
(§4) Drug combination synergy was determined based on dose-effect curves generated as cell proliferation after 24 hours of treatment.

[13] = test system: DOHH2 cells; test: as above; format: cell-based; settings: DOHH2, Follicular Lymphoma, single agent; read-out: ABT-199 EC50
Experimental: as §2, §3, §4

[14] = test system: WSUDLCL2 cells; test: as above; format: cell-based
Experimental: as §2, §3, §4

[15] = test system: KARPAS422 cells; test: as above; format: cell-based
Experimental: as §2, §3, §4

[16] = test system: U2932 cells; test: as above; format: cell-based; settings: U2932, ABC DLBCL, single agent; read-out: ABT-199 EC50
Experimental: as §2, §3, §4

[17] = test system: SUDHL4 cells; test: as above; format: cell-based
Experimental: as §2, §3, §4

Molecule: COc1ccc(-c2nc(N3CCOCC3)c3sc(CN(C)c4ncc(C(=O)NO)cn4)cc3n2)cn1 [Compound 1, N-hydroxy-2-(((2-(6-methoxypyridin-3-yl)-4-morpholinothieno[3,2-d]pyrimidin-6-yl)methyl)(methyl)amino)pyrimidine-5-carboxamide]
oral bioavailability [1]: significant oral bioavailability
Compound 1 %TGI (100 mg/kg) [2]: 33%
Compound 1 %TGI (100 mg/kg) [3]: 56%
Compound 1 %TGI (100 mg/kg) [4]: 97%
Compound 1 %TGI (100 mg/kg) [5]: 69%
uptake by the tumor tissue [6]: significant uptake by the tumor tissue
antitumor activity [7]: substantial antitumor activity
safety profile, genotoxicity (Ames test) [8]: favorable safety profile
IC50 [9]: < 100 nM
Compound 1 %TGI (100 mg/kg) [10]: 23%
Compound 1 %TGI (100 mg/kg) [11]: 47%*

EC50 ([12]; OCILY3, ABC DLBCL, single agent, read-out: ABT-199 EC50): 20000 nM
EC50 [13]: 133 nM
EC50 ([14]; WSUDLCL2, GCB DLBCL, single agent, read-out: ABT-199 EC50): 3660 nM
EC50 ([15]; KARPAS422, Follicular Lymphoma, single agent, read-out: ABT-199 EC50): 15600 nM
EC50 [16]: 476 nM
EC50 ([17]; SUDHL4, GBC DLBCL, single agent, read-out: ABT-199 EC50): 2130 nM
Molecule: venetoclax [ABT-199]
sensitivity of cell line to single agent ([12]; OCILY3): refractory
sensitivity of cell line to single agent ([14]; WSUDLCL2): refractory
sensitivity of cell line to single agent ([15]; KARPAS422): refractory
sensitivity of cell line to single agent ([17]; SUDHL4): refractory
